Results: patent US20100022596A1, “EPOTHILONE ANALOGUES” (priority 2006, published 2010)
Values joined by “and” are separate entries in the source; they are usually repeats but may differ in a detail not shown here. Equal values may be shown once.

How the values were obtained:
[1] = system: human epidermoid carcinoma cell line KB-31; test: Growth inhibition of KB-31 cells, 72 h, methylene blue staining; type: cell-based; conditions: KB-31, 72 h exposure
Experimental: Determination of IC50 Values Against Human Epidermoid Carcinoma Cell Lines KB-31
Cells are exposed to compounds for 72 h. Cell numbers are estimated by quantification of protein content of fixed cells by methylene blue staining.

[2] = system: human epidermoid carcinoma cell line KB-8511; test: Growth inhibition of KB-8511 cells (P-gp170-overexpressing multidrug-resistant subline), 72 h, methylene blue staining; type: cell-based
[3] = KB-8511 (P-gp170-overexpressing), 72 h exposure
[4] = KB-8511, 72 h exposure, class symbols

IC50 ([1]; Homo sapiens, KB 3-1, 72 h, class symbols) | IC50 ([2]; Homo sapiens, KB-8511, 72 h exposure, class symbols) | IC50 ([1]; Homo sapiens, KB 3-1, 72 h) | IC50 ([2]; Homo sapiens, KB-8511 (P-gp170-overexpressing), 72 h exposure) | SMILES | IC50 [1] | IC50 ([1]; class symbols) | IC50 [2, 3] | IC50 [2, 4] | IC50 ([2]; KB-8511, 72 h exposure, class symbols, listed as drawing 62)
500 to 750 nM | > 1000 nM | – | – | C/C(=C\c1csc(C)n1)[C@@H]1C[C@@H]2OC(=O)NC2CCCC(C)[C@H](O)C(C)C(=O)C(C)(C)C(O)CC(=O)O1 (stereo partly shown) [Compound 1] | – | – | – | – | –
– | – | – | – | CC(=Cc1csc(C)n1)C1CC2OC(C)=NC2CCCC(C)C(O)C(C)C(=O)C(C)(C)C(O)CC(=O)O1 (stereo not shown) [Compound 4a] | > 1000 nM | > 1000 nM | > 1000 nM | > 1000 nM | –
– | – | – | – | CCC1=NC2CCCC(C)C(O)C(C)C(=O)C(C)(C)C(O)CC(=O)OC(C(C)=Cc3csc(C)n3)CC2O1 (stereo not shown) [Compound 4b] | 1860 nM | > 1000 nM | 5540 nM | > 1000 nM | –
– | – | – | – | CCCCC1=NC2CCCC(C)C(O)C(C)C(=O)C(C)(C)C(O)CC(=O)OC(C(C)=Cc3csc(C)n3)CC2O1 (stereo not shown) [Compound 4c] | 344 nM and 386 nM | 250 to 500 nM | 923 nM and 998 nM | 750 to 1000 nM | –
– | – | – | – | CC(=Cc1csc(C)n1)C1CC2OC(C(C)(C)C)=NC2CCCC(C)C(O)C(C)C(=O)C(C)(C)C(O)CC(=O)O1 (stereo not shown) [Compound 4d] | 12 nM | 100 to 250 nM | 55 nM | 100 to 250 nM | –
– | – | – | – | COC1=NC2CCCC(C)C(O)C(C)C(=O)C(C)(C)C(O)CC(=O)OC(C(C)=Cc3csc(C)n3)CC2O1 (stereo not shown) [Compound 4e] | 1270 nM | > 1000 nM | 5520 nM | > 1000 nM | –
– | – | 615 nM | > 10000 nM | C/C(=C\c1csc(C)n1)[C@@H]1C[C@@H]2OC(=O)NC2CCCC(C)[C@H](O)C(C)C(=O)C(C)(C)C(O)CC(=O)O1 (stereo partly shown) [Compound 4h] | 640 nM | – | – | – | –
– | – | – | – | CC(=Cc1csc(C)n1)C1CC2OC(c3ccsc3)=NC2CCCC(C)C(O)C(C)C(=O)C(C)(C)C(O)CC(=O)O1 (stereo not shown) [Compound 5l] | 42 nM | – | 146 nM | – | < 100 nM
– | – | – | – | CC(=Cc1csc(C)n1)C1CC2OC(c3ccncc3)=NC2CCCC(C)C(O)C(C)C(=O)C(C)(C)C(O)CC(=O)O1 (stereo not shown) [Compound 6a] | 30 nM | < 100 nM | 83 nM | < 100 nM | –
– | – | – | – | CC(=Cc1csc(C)n1)C1CC2OC(c3ccsc3)=NC2CCCC(C)C(O)C(C)C(=O)C(C)(C)C(O)CC(=O)O1 (stereo not shown) [drawing 72] | – | < 100 nM | – | 100 to 250 nM | –
